Test results as given in US10053485B2, “Cytotoxic agents that preferentially target leukemia inhibitory factor (LIF) for the treatment of malignancies and as new contraceptive agents” (Evestra, Inc., priority 2015, dated 2018).

Columns and labels:
SW-620 = assay: NCI-60 screen, Colon Cancer panel; type: cell-based; settings: Homo sapiens, SW-620, 48 h
HL-60(TB) = assay: NCI-60 screen, Leukemia panel; type: cell-based; settings: Homo sapiens, HL-60, 48 h
K-562 = assay: NCI-60 screen, Leukemia panel; type: cell-based; settings: Homo sapiens, K562, 48 h
T-47D = assay: NCI-60 screen, Breast Cancer panel; type: cell-based; settings: Homo sapiens, T47D, 48 h
U87-MU (Glioma cells) = assay: Short term (72 h) cytotoxicity assay; type: cell-based; settings: Glioma cell
SK-OV-3 = assay: NCI-60 screen, Ovarian Cancer panel; type: cell-based; settings: Homo sapiens, SK-OV-3, 48 h
UACC-257 = assay: NCI-60 screen, Melanoma panel; type: cell-based; settings: Homo sapiens, UACC-257, 48 h
LOX IMVI = assay: NCI-60 screen, Melanoma panel; type: cell-based; settings: Homo sapiens, 48 h
COLO 205 = assay: NCI-60 screen, Colon Cancer panel; type: cell-based; settings: Homo sapiens, COLO 205, 48 h
OVCAR-3 = assay: NCI-60 screen, Ovarian Cancer panel; type: cell-based; settings: Homo sapiens, OVCAR-3, 48 h
Experimental: EC 330 was also tested using the NCI-60 Screening Methodology. The human tumor cell lines of the cancer screening panel are grown in RPMI 1640 medium containing 5% fetal bovine serum and 2 mM L-glutamine. For a typical screening experiment, cells are inoculated into 96 well microtiter plates in 100 μL at plating densities ranging from 5,000 to 40,000 cells/well depending on the doubling time of individual cell lines. After cell inoculation, the microtiter plates are incubated at 37° C., 5% CO2, 95% air and 100% relative humidity for 24 h prior to addition of experimental drugs. […]
Following drug addition, the plates are incubated for an additional 48 h at 37° C., 5% CO2, 95% air, and 100% relative humidity. […] Bound stain is subsequently solubilized with 10 mM trizma base, and the absorbance is read on an automated plate reader at a wavelength of 515 nm. […] Using the seven absorbance measurements [time zero, (Tz), control growth, (C), and test growth in the presence of drug at the five concentration levels (Ti)], the percentage growth is calculated at each of the drug concentrations levels. Percentage growth inhibition is calculated as: [(Ti−Tz)/(C−Tz)]×100 for concentrations for which Ti>/=Tz [(Ti−Tz)/Tz]×100 for concentrations for which Ti<Tz.
Three dose response parameters are calculated for each experimental agent. […]

T47D breast cancer cells = assay: Soft agar colony formation assay; type: cell-based, human
Experimental: Colonies of cancer cells formed in soft agar in the presence and absence of the testing compounds is a standard assay to interpret in-vitro tumorigenic potential in the basal layer. Agar was prepared by mixing 1% DNA grade agar melted and cooled to 40° C. with an equal volume of (2×) Dulbecco's Modified Eagle's Medium (DMEM) to obtain 0.5% agar that was dispersed in a 6-well plate and allowed to solidify. A total of 0.6% agar was prepared in RPMI medium and mixed together with T47D cells (0.5×10^6 cells/mL) and immediately plated on the basal layer in the presence or absence of testing compounds. The cultures were incubated at 37° C. in a CO2 incubator for 2 weeks, and colonies were stained with 0.005% crystal violet and observed under a light microscope.

PC-3 = assay: NCI-60 screen, Prostate Cancer panel; type: cell-based; settings: Homo sapiens, PC-3, 48 h
MDA-MB-435 = assay: NCI-60 screen, Melanoma panel; type: cell-based; settings: Homo sapiens, MDA-MB-435, 48 h
[1] = read-out: GI50 (log10GI50) (converted)
[2] = read-out: LC50 (log10LC50) (converted)

SMILES: C#CC(F)(F)[C@]1(O)CCC2C3CCC4=CC(=O)CCC4=C3C(c3ccc(C4CC4)cc3)C[C@@]21C (stereo partly drawn) [EC330, 17α-(1,1-difluoro-2-propyn-1-yl)-17β-hydroxy-11β-[4-p-(cyclopropyl)phenyl]estra-4,9-dien-3-one]
- GI50 (SW-620; [1]): 2510 nM
- CC50 (SW-620; [2]): > 100000 nM
- GI50 (HL-60(TB); [1]): < 10 nM
- CC50 (HL-60(TB); [2]): < 10 nM
- GI50 (K-562; [1]): 2190 nM
- CC50 (K-562; [2]): > 100000 nM
- GI50 (T-47D; [1]): < 10 nM
- CC50 (T-47D; [2]): > 100000 nM
- IC50 (U87-MU (Glioma cells)): 25 nM
- GI50 (SK-OV-3; [1]): 117 nM
- CC50 (SK-OV-3; [2]): 661 nM
- GI50 (UACC-257; [1]): 7080 nM
- CC50 (UACC-257; [2]): > 100000 nM
- GI50 (LOX IMVI; [1]): < 10 nM
- CC50 (LOX IMVI; [2]): < 10 nM
- GI50 (COLO 205; [1]): 794 nM
- CC50 (COLO 205; [2]): 8910 nM
- CC50 (OVCAR-3; [2]): 933 nM
- GI50 (OVCAR-3; SRB, read-out: GI50 (log10GI50) (converted)): 12.9 nM
- inhibition in the number of colonies formed (T47D breast cancer cells; 100 nM concentration, in words): complete inhibition
- inhibition at 0.005 µM (T47D breast cancer cells; Homo sapiens, T47D, 5 nM concentration, read-out: inhibition in the number of colonies formed): 50%
- GI50 (PC-3; [1]): 513 nM
- CC50 (PC-3; [2]): > 100000 nM
- GI50 (MDA-MB-435; [1]): 1860 nM
- CC50 (MDA-MB-435; [2]): > 100000 nM
